What was measured:
[1] = test system: human breast cancer cell BT-474; test: Inhibitory action on breast cancer cell BT-474 proliferation in vitro; format: cell-based; settings: 120 h, BT-474 cells, cultured 5 days, SRB staining
Method: A suspension of human breast cancer cell BT-474 (100 μl (6,000 cells)) were sown to a 96-well microplate and cultured in an incubator (37° C., 5% carbon dioxide). On the following day, 100 μl of a solution of each test compound, which was previously diluted 2-fold, was added, and the cells were cultured for 5 days. After the culture medium containing the test compound was removed, the cells were washed and fixed with 50% trichloroacetic acid, after which a 0.4% (w/v) SRB solution (dissolved in 1% acetic acid) was added to fix and stain the cell protein (Skehan et al., Journal of the National Cancer Institute, Vol. 82, pp. 1107-1112, 1990). After washing with a 1% acetic acid solution, 100 μl of an extract (10 mM Tris solution) was added to extract the pigment, and absorbance was measured at an absorption wavelength of 550 nm to quantify the amount of cells as protein content. Taking as 100% the protein content for the control group, which received no test compound solution, the ratio of the residual protein content for each treatment group was determined, and the compound concentration required to achieve 50% suppression of the residual cell content relative to the control (IC50 value) was calculated.

[2] = biological target: T1, EGF receptor intracellular domain protein (Homo sapiens, UniProt P00533); test: Determination of EGF receptor kinase inhibitory activity; format: biochemical; settings: 1.0 μM test compound; biotinyl-poly-Glu:Tyr (4:1), AlphaScreen, 25° C., 10 min; read-out: EGF receptor kinase Inhibitory rate (%) at 1.0 μM
T1 construct: encoding EGF receptor intracellular domain region, so that the protein contains an N-terminal Flag tag; made in house; host or cells: SF-21 insect cells, recombinant baculovirus BAC-EGFR
Method: Human EGF receptor gene was cloned by RT-PCR using total RNA prepared from A431 cells as a template. The primer for RT-PCR was prepared from nucleotide sequence (Genbank Accession XM—167493) information of EGF receptor gene by adding a nucleotide sequence encoding flag peptide and a restriction enzyme recognition sequence to a nucleotide sequence (2182-3810 of Genbank Accession XM—167493) encoding EGF receptor intracellular domain region, so that the protein contains an N-terminal Flag tag. The primer nucleotide sequence is shown below.
The RT reaction was conducted using SuperScript First-Strand Synthesis System for RT-PCR (Invitrogen) and the PCR reaction was conducted using a KOD-plus kit (TOYOBO). The obtained PCR product was electrophoresed on agarose gel (1%), the DNA fragment amplified by PCR was recovered from the gel, and then digested with restriction enzymes Sal I and Sph I. The DNA treated with the restriction enzymes was electrophoresed on agarose gel (1%), and the obtained DNA fragment was recovered and ligated to plasmid pFASTBAC1 (Invitrogen) digested with restriction enzymes Sal I and Sph I to give expression plasmid pFB-EGFR. The nucleotide sequence of insertion fragment was confirmed and found to be identical with the nucleotide sequence (2182-3810 of Genbank Accession XM—167493) of EGFR intracellular domain. Furthermore, using BAC-TO-BAC Baculovirus Expression System (Invitrogen), virus stock BAC-EGFR of recombinant baculovirus was prepared.
SF-21 cells were sown at 1×10^6 cells/mL to Sf-900II SFM medium (1 L, Invitrogen) containing 10% fetal bovine serum (trace), 50 mg/L gentamicin (Invitrogen) and 0.1% Pluronic F-68 (Invitrogen), and shaking culture was performed using a 2 L volume Erlenmeyer flask at 27° C., 100 rpm. After culturing for 24 hrs, recombinant baculovirus BAC-EGFR (13.4 mL) was added, and the mixture was further cultured for 3 days. The culture medium was centrifuged at 2,000 rpm for 5 min. to give virus-infected cells. The infected cells were washed with a phosphate buffered saline (Invitrogen), centrifuged under the same conditions, and the cells were preserved at −80° C. The cryopreserved cells were thawed in ice, suspended in buffer A (50 mM Tris buffer (30 mL, pH7.4) containing 20% glycerol, 0.15 M NaCl) supplemented with Complete Protease Inhibitor (Boehringer), and ruptured 3 times with a Polytron homogenizer (Kinematica) at 20,000 rpm for 30 sec. The ruptured medium was clarified by centrifugation at 40,000 rpm for 30 min. and filtered with a 0.45 μm filter. The filtrate was passed through a column packed with Anti-FLAG M2 Affinity Gel (4 mL, Sigma) at a flow rate of about 0.5 mL/min. The column was washed with buffer A, and eluted with buffer A containing 100 μg/mL of FLAG peptide. The eluate was concentrated with Vivaspin 20 (Vivascience) having a molecular weight cut off of 30K. The buffer of this concentrate was exchanged using NAPE 25 column (Amersham Bioscience) equilibrated with buffer A. The fractions containing EGF receptor intracellular domain protein were collected, glycerol was added to the final concentration of 50% and cryopreserved at −80° C.
A test compound dissolved in dimethyl sulfoxide (DMSO) was diluted with a buffer (50 mM Tris-HCl (pH 7.5), 5 mM MgCl2, 5 mM MnCl2, 2 mM dithiothreitol, 0.01% Tween-20). To this compound solution (5 μL) was added a buffer (10 μL) containing 250 ng/mL of EGF receptor intracellular domain protein and 250 ng/mL of biotin labeled polypeptide biotinyl-poly-Glu:Tyr (4:1) (CIS bio International). […]

T1 sequence (P00533 669-1210 limits assumed): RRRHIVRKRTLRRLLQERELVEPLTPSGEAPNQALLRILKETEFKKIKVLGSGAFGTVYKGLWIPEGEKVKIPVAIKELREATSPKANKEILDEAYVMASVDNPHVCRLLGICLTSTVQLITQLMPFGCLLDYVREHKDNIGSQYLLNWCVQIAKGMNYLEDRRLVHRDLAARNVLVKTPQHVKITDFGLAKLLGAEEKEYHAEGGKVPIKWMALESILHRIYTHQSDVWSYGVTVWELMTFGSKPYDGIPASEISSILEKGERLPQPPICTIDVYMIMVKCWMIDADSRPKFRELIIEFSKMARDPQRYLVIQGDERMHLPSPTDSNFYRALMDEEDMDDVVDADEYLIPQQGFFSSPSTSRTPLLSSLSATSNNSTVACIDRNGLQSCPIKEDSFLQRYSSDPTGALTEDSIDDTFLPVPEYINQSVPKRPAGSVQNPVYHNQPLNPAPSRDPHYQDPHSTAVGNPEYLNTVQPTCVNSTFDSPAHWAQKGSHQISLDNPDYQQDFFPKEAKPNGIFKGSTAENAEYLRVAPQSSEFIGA

| IC50 [1] [nM] | inhibition at 1 µM [2] [%] | Structure (SMILES) |
| --- | --- | --- |
| < 100 |  | CC(C)(C(=O)NCCn1ccc2ncnc(Nc3ccc(Oc4cccc(C(F)(F)F)c4)c(Cl)c3)c21)S(C)(=O)=O [Example 169, N-{2-[4-({3-chloro-4-[3-(trifluoromethyl)phenoxy]phenyl}amino)-5H-pyrrolo[3,2-d]pyrimidin-5-yl]ethyl}-2-methyl-2-(methylsulfonyl)propanamide] |
| < 100 |  | CC(C)(C)S(=O)(=O)CCOCCn1ccc2ncnc(Nc3ccc(Oc4cccc(C(F)(F)F)c4)c(Cl)c3)c21 [Example 176, 5-{2-[2-(tert-butylsulfonyl)ethoxy]ethyl}-N-{3-chloro-4-[3-(trifluoromethyl)phenoxy]phenyl}-5H-pyrrolo[3,2-d]pyrimidin-4-amine] |
| < 100 | 98 | CN(C)C/C=C/C(=O)NC/C=C/c1cc2ncnc(Nc3ccc(OCc4cccc(F)c4)c(Cl)c3)c2[nH]1 [Example 92, (2E)-N-{(2E)-3-[4-({3-chloro-4-[(3-fluorobenzyl)oxy]phenyl}amino)-5H-pyrrolo[3,2-d]pyrimidin-6-yl]prop-2-enyl}-4-(dimethylamino)but-2-enamide] |

Source: patent publication US8178543B2, “Bi- and tricyclic fused pyrimidines as tyrosine kinase inhibitors” (Takeda Pharmaceutical Company Limited, priority 2004, dated 2012)
